The values that follow come from patent publication US4499083A, “3-O-Demethyl derivatives of the istamycin B series of compounds” (Zaidan Hojin Biseibutsu Kagaku Kenkyu Kai, priority 1980, dated 1985).

In one series the test system is Pseudomonas aeruginosa. The following applies: relative to istamycin A; earlier filings; cited from earlier work.
For series [1], the system named is Gram-negative and Gram-positive bacteria. As to the kind of experiment: Antibacterial activity, overall statement. The series is classed as cell-based. How it is done:
The antibacterial spectra of 3-O-demethylistamycin B.sesquicarbonate and 3-O-demethyl-2"-N-formimidoylistamycin B.disulphate.trihydrate are shown in Table 2, along with that of istamycin B for comparison purposes.
*^1 Determined according to a standard serial dilution method on
nutrient agar plates which were incubated at 37° C. for 17 hours.

For another series, the system named is mice. Kind of series: Acute toxicity by intravenous injection in mice.
A short description of a further series: in vivo. The note with it: mouse, iv.

As to di-N^6',O^3 -demethylistamycin A, the “antibacterial activity against Pseudomonas aeruginosa compared with istamycin A” value with Pseudomonas aeruginosa is reported as “significantly higher than that of istamycin A”.
With `CNCC1CCC(N)C(OC2C(N)CC(O)C(NC)C2O)O1` (stereo not shown) [3-O-Demethylistamycin BO], in series [1], the “antibacterial activity (in words)” value is “poor antibacterial activity”. Besides, in the series with mice, the “toxicity (in words)” value is listed as “low toxicity”. Also, the MTD in “in vivo” was found to be 160 mg/kg.
